Results as given in patent publication US20220218670A1, “METHODS OF TREATING DISEASES CHARACTERISED BY VASOCONSTRICTION” (Gesynta Pharma AB, priority 2016, published 2022).

What was measured:
Format in all cases: in vivo
ADMA = experiment: Circulating ADMA in plasma by immunoassay after COX-2 inhibition in mice; settings: wild-type mice; parecoxib 100 mg/kg in drinking water for 5 days; FIG. 1
Description: Experiments were performed on male and female mPGES-1^−/− and their wild-type mPGES-1^+/+ littermate mice at 6-8 weeks of age. […] All mice were housed with a 12 h light/dark cycle in a climate-controlled environment, and were fed with standard rodent chow with water ad libitum. All mice experiments were conducted in line with EU directive 2010/63/EU and according to guidelines from the Swedish Veterinary board the Guide for the Care and Use of Laboratory Animals published by the US National Institutes of Health (NIH Publication No. 85-23, revised 1996). Studies were sanctioned by the Karolinska Institute ethics committee (dnr. N86_13 and N364_11), the Shantou University Institutional Animal Research and Use Committee and/or the Imperial College London Ethical Review Panel (PPL 70/7013 and 70/8422). Where indicated, wild-type (mPGES-1^+/+) mice were treated with the selective COX-2 inhibitor, parecoxib (100 mg/kg; Pfizer, USA) added to their drinking water for 5 days prior to tissue collection as we have done before (see Ahmetaj-Shala, B. et al., Circulation, 131, 633-642 (2015)).
Plasma was separated by centrifugation for the following circulating mediators measured by immunoassay: ADMA (DLD Diagnostika, Germany), PGE2 (Cisbio Bioassays, France).

Prmt1 = experiment: Gene expression in renal medulla (TaqMan), gene for synthesis of ADMA; settings: wild-type mice, parecoxib 100 mg/kg in drinking water for 5 days, FIG. 2
Description: (§1) Experiments were performed on male and female mPGES-1^−/− and their wild-type mPGES-1^+/+ littermate mice at 6-8 weeks of age. […] All mice were housed with a 12 h light/dark cycle in a climate-controlled environment, and were fed with standard rodent chow with water ad libitum. All mice experiments were conducted in line with EU directive 2010/63/EU and according to guidelines from the Swedish Veterinary board the Guide for the Care and Use of Laboratory Animals published by the US National Institutes of Health (NIH Publication No. 85-23, revised 1996). […]
(§2) RNA was isolated from renal medulla homogenates using a magnetic silica-bead isolation kit (Life Technologies, UK) and converted to cDNA using reverse transcriptase (Thermo Fisher Scientific, UK) with oligo(dT) primers (Life Technologies, UK). Gene expression levels were determined using TaqMan hydrolysis probes (Life Technologies, UK) recognising Prmt1 (probe ID: Mm00480133_m1 or Agxt2 (probe ID: Mm01304088_m1). Data were normalised to expression of the housekeeping genes 18S (probe ID: Mm03928990_g1) and Gapdh (probe ID: Mm99999915_g1) and relative expression compared using the comparative Ct method.

Agxt2 = experiment: Gene expression in renal medulla (TaqMan), gene for degradation of ADMA; settings: wild-type mice, parecoxib 100 mg/kg in drinking water for 5 days, FIG. 3
Description: as §1, §2

For `CCC(=O)NS(=O)(=O)c1ccc(-c2c(-c3ccccc3)noc2C)cc1` [parecoxib], the “plasma levels of ADMA” value (ADMA) was “increased levels of ADMA”, the “expression of genes responsible for synthesis of ADMA (Prmt1)” value (Prmt1) was “increased expression of genes responsible for synthesis of ADMA (Prmt1)” and the “expression of genes responsible for degradation of ADMA (Agxt2)” value (Agxt2) was “increased expression of genes responsible for degradation of ADMA (Agxt2)”.
